The text below walks through data of patent US12371428B2 (Exelixis, Inc., priority 2019, dated 2025).

The target of experiment [1] is Human KDR (residues 790-1356) (Homo sapiens (Human), UniProt P35968). As to the kind of experiment: Human KDR kinase assay, HTRF KinEase (Example B-2). Type of experiment: biochemical. As to conditions: protocol of Example B-2 (other compounds). The gist of the method:
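Ten compound concentrations (3% DMSO final) were pre-plated, then KDR (790-1356) with biotinylated peptide in Mg/Mn/DTT buffer was added; ATP at Km (4.0 μM) started a 40 min room-temperature reaction. Detection used Eu-TK antibody and SA-XL665 in EDTA buffer; activity normalized to DMSO and reference inhibitor, IC50 by logistic fit.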
(In TR-FRET formats the signal depends on donor and acceptor labels being close together.)

The target of experiment [2] is KDR (phospho-KDR, VEGF165-stimulated HUVEC cells) (Homo sapiens (Human), UniProt P35968). As to the kind of experiment: KDR autophosphorylation ELISA in HUVEC cells (Example G). Type of experiment: cell-based. Conditions: cellular activity; KDR autophosphorylation ELISA in HUVEC cells. The method in brief: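 Inhibition of VEGF165-driven KDR autophosphorylation is measured in primary human umbilical vein endothelial cells after 24 h serum deprivation. Compound preincubation lasts 1 h before a 5-minute challenge with 100 ng/mL ligand, and phosphorylated receptor is then measured by ELISA in the lysates.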
Chain of KDR (phospho-KDR, VEGF165-stimulated HUVEC cells) (P35968 20-1356): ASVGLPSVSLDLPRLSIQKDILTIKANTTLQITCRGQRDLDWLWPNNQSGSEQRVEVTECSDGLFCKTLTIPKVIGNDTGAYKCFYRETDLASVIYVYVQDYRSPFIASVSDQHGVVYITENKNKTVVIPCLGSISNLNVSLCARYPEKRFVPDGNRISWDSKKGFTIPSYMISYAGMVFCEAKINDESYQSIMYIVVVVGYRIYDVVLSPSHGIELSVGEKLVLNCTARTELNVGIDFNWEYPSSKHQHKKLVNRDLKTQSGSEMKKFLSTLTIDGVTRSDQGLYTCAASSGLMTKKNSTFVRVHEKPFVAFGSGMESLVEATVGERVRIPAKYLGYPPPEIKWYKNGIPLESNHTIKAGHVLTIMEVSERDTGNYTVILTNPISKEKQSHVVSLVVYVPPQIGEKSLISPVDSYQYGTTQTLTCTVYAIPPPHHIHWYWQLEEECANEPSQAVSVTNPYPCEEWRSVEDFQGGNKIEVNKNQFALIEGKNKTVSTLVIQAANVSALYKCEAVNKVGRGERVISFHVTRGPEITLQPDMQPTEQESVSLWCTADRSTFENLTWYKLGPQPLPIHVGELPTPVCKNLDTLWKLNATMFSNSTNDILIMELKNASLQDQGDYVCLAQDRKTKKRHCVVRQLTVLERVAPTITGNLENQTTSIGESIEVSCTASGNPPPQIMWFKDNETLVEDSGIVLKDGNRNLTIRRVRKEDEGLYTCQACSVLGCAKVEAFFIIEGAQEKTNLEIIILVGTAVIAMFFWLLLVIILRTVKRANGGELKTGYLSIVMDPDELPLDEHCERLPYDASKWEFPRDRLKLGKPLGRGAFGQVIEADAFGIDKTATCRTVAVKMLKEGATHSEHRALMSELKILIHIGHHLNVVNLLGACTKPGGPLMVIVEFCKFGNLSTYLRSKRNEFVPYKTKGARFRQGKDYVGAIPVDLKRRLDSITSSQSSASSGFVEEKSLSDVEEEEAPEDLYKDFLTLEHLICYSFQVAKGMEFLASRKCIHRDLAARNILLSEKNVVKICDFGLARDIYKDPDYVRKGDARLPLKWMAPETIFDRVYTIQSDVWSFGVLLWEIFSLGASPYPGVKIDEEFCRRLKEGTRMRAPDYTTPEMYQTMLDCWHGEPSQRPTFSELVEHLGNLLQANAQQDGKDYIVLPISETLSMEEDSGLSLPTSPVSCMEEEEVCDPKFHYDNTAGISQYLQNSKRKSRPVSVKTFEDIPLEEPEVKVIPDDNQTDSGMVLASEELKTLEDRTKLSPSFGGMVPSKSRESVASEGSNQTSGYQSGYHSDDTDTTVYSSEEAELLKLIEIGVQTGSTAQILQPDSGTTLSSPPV
(ELISA stands for enzyme-linked immunosorbent assay.)

The target in experiment [3] is Human MER (residues 528-999) (Homo sapiens (Human), UniProt Q12866). Kind of experiment: Human Mer kinase assay, HTRF KinEase (Example C-2). Conditions: protocol of Example C-2 (other compounds). It is filed as biochemical. The method in brief: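 IC50 values from 10 concentrations via 4-parameter logistic fit of […], with DMSO as 100% and 1 μM reference compound as 0% activity. Reaction: MER kinase domain 528-999, 1 ng/well, 40 μM ATP (Km), biotin peptide, 5 mM MgCl2, 1 mM DTT, 3% DMSO, room temperature 60 min; HTRF streptavidin-XL665/Eu-antibody detection.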
Chain of Human MER (residues 528-999) (Q12866 528-999): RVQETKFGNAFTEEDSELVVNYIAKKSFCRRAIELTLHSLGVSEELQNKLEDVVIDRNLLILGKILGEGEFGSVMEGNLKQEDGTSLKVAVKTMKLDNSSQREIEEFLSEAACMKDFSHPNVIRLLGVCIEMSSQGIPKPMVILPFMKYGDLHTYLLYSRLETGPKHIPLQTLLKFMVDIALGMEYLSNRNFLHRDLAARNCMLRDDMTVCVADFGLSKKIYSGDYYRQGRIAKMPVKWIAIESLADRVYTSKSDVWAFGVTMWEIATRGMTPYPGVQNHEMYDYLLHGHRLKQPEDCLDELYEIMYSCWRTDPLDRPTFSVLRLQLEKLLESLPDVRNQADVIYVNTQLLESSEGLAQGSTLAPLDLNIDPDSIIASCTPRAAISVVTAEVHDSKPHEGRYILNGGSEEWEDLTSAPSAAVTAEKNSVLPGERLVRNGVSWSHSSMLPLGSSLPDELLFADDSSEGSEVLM

Experiment [4] deals with Human MET (residues 956-1390) (Homo sapiens (Human), UniProt P08581). Kind of experiment: Human Met kinase assay, HTRF KinEase (Example D-2). It is filed as biochemical. Conditions: protocol of Example D-2 (other compounds); read-out: c-Met IC50. The gist of the method:
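IC50 values come from a 4-parameter logistic fit of the […] fluorescence ratio, set between DMSO (100%) and reference compound at 1 μM (0%). Reactions held MET 956-1390 at 0.1 ng/well, ATP at Km, biotinylated peptide, 5 mM MgCl2, 1 mM MnCl2, 1 mM DTT and 3% DMSO, and ran 40 min at room temperature before streptavidin-XL665/Eu-antibody detection.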

Some results are limits rather than exact numbers.

Chain of Human KDR (residues 790-1356) (P35968 790-1356): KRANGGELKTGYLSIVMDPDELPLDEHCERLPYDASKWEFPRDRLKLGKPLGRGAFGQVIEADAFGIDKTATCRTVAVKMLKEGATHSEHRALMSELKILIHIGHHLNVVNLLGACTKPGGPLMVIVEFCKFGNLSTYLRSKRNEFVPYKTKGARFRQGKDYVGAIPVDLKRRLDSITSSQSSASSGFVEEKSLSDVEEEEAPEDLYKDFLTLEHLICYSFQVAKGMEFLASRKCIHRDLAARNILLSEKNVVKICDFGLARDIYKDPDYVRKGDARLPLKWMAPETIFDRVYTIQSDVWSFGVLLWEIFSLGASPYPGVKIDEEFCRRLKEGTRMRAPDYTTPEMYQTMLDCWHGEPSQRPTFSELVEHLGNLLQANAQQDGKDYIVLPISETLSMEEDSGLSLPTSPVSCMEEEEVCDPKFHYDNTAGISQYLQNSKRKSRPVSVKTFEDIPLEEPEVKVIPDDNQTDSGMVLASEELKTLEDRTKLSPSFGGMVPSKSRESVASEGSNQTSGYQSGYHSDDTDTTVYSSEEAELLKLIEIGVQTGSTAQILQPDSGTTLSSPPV
Chain of Human MET (residues 956-1390) (P08581 956-1390): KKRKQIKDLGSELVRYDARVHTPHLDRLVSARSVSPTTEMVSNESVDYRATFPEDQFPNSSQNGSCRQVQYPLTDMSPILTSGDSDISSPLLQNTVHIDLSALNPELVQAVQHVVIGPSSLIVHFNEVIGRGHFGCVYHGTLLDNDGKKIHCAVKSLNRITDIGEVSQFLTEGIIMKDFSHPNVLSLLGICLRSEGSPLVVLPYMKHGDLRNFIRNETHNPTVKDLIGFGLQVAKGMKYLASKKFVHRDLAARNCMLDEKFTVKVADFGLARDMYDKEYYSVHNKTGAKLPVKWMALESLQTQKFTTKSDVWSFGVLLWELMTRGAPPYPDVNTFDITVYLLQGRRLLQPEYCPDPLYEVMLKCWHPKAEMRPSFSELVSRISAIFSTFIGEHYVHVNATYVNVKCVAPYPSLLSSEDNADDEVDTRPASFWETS

In general, IC50 refers to the concentration that gives 50% inhibition. On to `COc1cc2nccc(Oc3ccc(NC(=O)c4cnc(CO)c(-c5ccc(F)cc5)c4O)cc3F)c2nc1OC` [Compound 71, N-[4-[(6,7-Dimethoxy-1,5-naphthyridin-4-yl)oxy]-3-fluorophenyl]-5-(4-fluorophenyl)-4-hydroxy-6-(hydroxymethyl)pyridine-3-carboxamide], for which the IC50 in experiment [1], in experiment [2], in experiment [3] and in experiment [4] was less than 100 nM each time.

Turning to `COc1ccc2nccc(Oc3ccc(NC(=O)c4cn(C5CC5)c(C)c(-c5ccc(F)cc5C)c4=O)cc3F)c2n1` [Compound 441, 1-cyclopropyl-N-[3-fluoro-4-[(6-methoxy-1,5-naphthyridin-4-yl)oxy]phenyl]-5-(4-fluoro-2-methylphenyl)-6-methyl-4-oxopyridine-3-carboxamide], the IC50 is greater than 300 nM in experiment [1], greater than 300 nM in experiment [2], less than 100 nM in experiment [3] and 100 to 300 nM in experiment [4].

As to `COc1cnc2c(Oc3ccc(NC(=O)c4cnc(C)c(-c5ccc(F)cc5)c4O)cc3F)ccnc2c1` [Compound 64, N-[3-Fluoro-4-[(7-methoxy-1,5-naphthyridin-4-yl)oxy]phenyl]-5-(4-fluorophenyl)-4-hydroxy-6-methylpyridine-3-carboxamide], the IC50 in experiment [1], in experiment [2], in experiment [3] and in experiment [4] was less than 100 nM each time.

Take `COc1cnc2c(Oc3ccc(NC(=O)c4ccc(C)n(-c5ccc(F)cc5)c4=O)cc3F)ccnc2c1` [Compound 83, N-[3-Fluoro-4-[(7-methoxy-1,5-naphthyridin-4-yl)oxy]phenyl]-1-(4-fluorophenyl)-6-methyl-2-oxopyridine-3-carboxamide]: the IC50 in experiment [1], in experiment [2], in experiment [3] and in experiment [4] was less than 100 nM each time.

As for `COc1cc2nccc(Oc3ccc(NC(=O)c4cn(-c5cn[nH]c5)cc(-c5ccc(F)cc5)c4=O)cc3F)c2nc1OC` [Compound 62, N-[4-[(6,7-Dimethoxy-1,5-naphthyridin-4-yl)oxy]-3-fluorophenyl]-5-(4-fluorophenyl)-4-oxo-1-(1H-pyrazol-4-yl)pyridine-3-carboxamide], the IC50 in experiment [1] was greater than 300 nM; in experiment [2], greater than 300 nM; in experiment [3] it was less than 100 nM; in experiment [4] it was less than 100 nM.

Turning to `COc1cc2nccc(Oc3ccc(NC(=O)c4cn(C5CC5)c(C)c(-c5ccc(F)cc5)c4=O)cc3)c2nc1OC` [Compound 434, 1-cyclopropyl-N-[4-[(6,7-dimethoxy-1,5-naphthyridin-4-yl)oxy]phenyl]-5-(4-fluorophenyl)-6-methyl-4-oxopyridine-3-carboxamide], the IC50 was greater than 300 nM in experiment [1], greater than 300 nM in experiment [2], less than 100 nM in experiment [3] and less than 100 nM in experiment [4].
